In patent US10669290B2, “Beta-lactamase inhibitors” (priority 2012, dated 2020):
Values after ≈ are worked out from the molar mass of the structure shown. Read-outs that look alike come from different tables or passages of the source.

Experiments:
E. cl 144200 p99 AmpC = assay: Broth microdilution MIC, E. cloacae 144200; assay type: cell-based; conditions: Enterobacter cloacae; fixed ceftazidime 4 μg/mL, CAMHB, 16-20 hours 37° C.; read-out: MIC of exemplary compounds in presence of fixed β-lactams, Fixed CAZ, E. cl 144200 p99 AmpC
Procedure, shortened: (§1)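 CAMHB; compound 32–0.25 μg/mL, 2-fold dilutions; β-lactam partner static at 4 μg/ml; CLSI inoculum from 3-5 h culture; 16-20 h, 37° C; visual MIC.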

E. coli ESBL4 CTX-M-15 = assay: Broth microdilution MIC, E. coli ESBL4; assay type: cell-based; conditions: Escherichia coli, ESBL4CTXM15; fixed ceftazidime 4 μg/mL, CAMHB, 16-20 hours 37° C.; read-out: MIC of exemplary compounds in presence of fixed β-lactams, Fixed CAZ, E. coli ESBL4 CTX-M-15
Procedure, shortened: as §1

K.P. 156319 KPC-3 = assay: Broth microdilution MIC, K. pneumoniae 156319; assay type: cell-based; conditions: Klebsiella pneumoniae
S. aureus MSSA-7 PC-1 = assay: Broth microdilution MIC, S. aureus MSSA-7; assay type: cell-based; conditions: Staphylococcus aureus, fixed piperacillin 4 μg/mL, CAMHB, 16-20 hours 37° C., read-out: MIC of exemplary compounds in presence of fixed β-lactams, Fixed Pip, S. aureus MSSA-7 PC-1
P. aerug. Ps296 VIM-2 = assay: Broth microdilution MIC, P. aeruginosa Ps296; assay type: cell-based; conditions: Pseudomonas aeruginosa; fixed meropenem 4 μg/mL, CAMHB, 16-20 hours 37° C.; read-out: MIC of exemplary compounds in presence of fixed β-lactams, Fixed Mero, P. aerug. Ps296 VIM-2
Procedure, shortened: as §1

K.P. A-1797 KPC-2 VIM-4 [1] = assay: Broth microdilution MIC, K. pneumoniae A-1797; assay type: cell-based; conditions: Klebsiella pneumoniae; fixed meropenem 4 μg/mL, CAMHB, 16-20 hours 37° C.; read-out: MIC of exemplary compounds in presence of fixed β-lactams, Fixed Mero, K.P. A-1797 KPC-2 VIM-4
p99 AmpC = molecular target: T1, p99 AmpC (Enterobacter cloacae, UniProt P05364); assay: β-Lactamase inhibition, p99 AmpC (nitrocefin substrate); assay type: biochemical; conditions: nitrocefin 100 μM, 486 nm, 15 min preincubation 37° C., PBS pH 7.4; read-out: IC50 AmpC (Class C)
T1 construct: made in house; host or cells: E. coli BL21 (DE3)
T1 sequence (P05364 21-381): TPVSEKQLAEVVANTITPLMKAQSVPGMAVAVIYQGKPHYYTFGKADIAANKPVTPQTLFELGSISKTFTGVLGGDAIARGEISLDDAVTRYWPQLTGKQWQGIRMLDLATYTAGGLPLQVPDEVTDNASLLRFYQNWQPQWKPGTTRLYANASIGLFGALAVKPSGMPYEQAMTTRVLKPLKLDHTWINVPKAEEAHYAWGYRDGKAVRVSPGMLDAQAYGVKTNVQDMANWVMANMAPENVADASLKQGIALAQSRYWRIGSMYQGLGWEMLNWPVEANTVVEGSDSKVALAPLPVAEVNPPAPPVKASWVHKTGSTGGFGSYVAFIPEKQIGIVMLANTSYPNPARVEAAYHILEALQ
Method: For SHV-5, Kpc-2, p99AmpC and OXA-1 β-lactamases, E. coli BL21 (DE3) bacterial cells carrying expression plasmids (expressed as native untagged proteins) for the individual β-lactamases were grown in 1 L of Superbroth (Teknova Inc. Hollister, Calif.) supplemented with 100 μg/ml kanamycin selection and 1×5052 (0.5% glycerol, 0.05% glucose and 0.2% α-lactose) at 35° C. for 18-20 hours. Cells were harvested by centrifugation (4,000×g, 4° C., 20 min), resuspended in 50 ml of 10 mM HEPES pH 7.5 ( 1/20 of the initial volume). The cells were lysed by sonication (5 pulses of 45 seconds) at 45 W on ice. The lysates were clarified by centrifugation at 10,000×g for 40 minutes at 4° C. Samples were diluted 5-fold in 50 mM sodium acetate pH 5.0, stored overnight at 4° C., after which they were centrifuged at 10,000×g for 30 minutes to clarify, and filtered through 0.45 µm filters. The samples were loaded onto a 5 ml Capto S sepharose cation exchange column (GE Healthcare) pre-equilibrated with 50 mM sodium acetate pH 5.0. The column was washed with 5 column volumes of 50 mM sodium acetate pH 5.0 to wash out unbound protein and a linear gradient of NaCl (0 to 500 mM) was used to elute the protein (over 16 CV) from the column. Fractions were assayed for β-lactamase activity using Centa (Calbiochem, Gibbstown, N.J.) or Nitrocefin (EMD Millipore chemicals, Darmstadt, Germany) as a reporter β-lactamase substrate for activity in the isolated fractions. Active fractions were pooled, concentrated and further purified by gel filtration chromatography on a Superdex 75 prep grade gel filtration column (GE Healthcare, Piscataway, N.J.) pre-equilibrated in 50 mM Hepes pH 7.5, 150 mM NaCl. Active fractions were pooled concentrated, quantitated by BCA protein determination (Thermo Scientific, Rockford, Ill.), dialyzed into PBS and frozen at −80° C. in 20% glycerol until use.
An equal volume of diluted enzyme stock was added, and the plates were incubated at 37° C. for 15 min. Nitrocefin was used as substrate for p99 AmpC, VIM-2 and OXA-1 and dispensed into each well at a final concentration of 100 μM. Absorbance at 486 nm was immediately monitored for 10 min using a Biotek Powerwave XS2 microplate spectrophotometer using the GEN5 software package (Biotek Instruments, Winooski Vt.). In an analogous fashion, imipenem was used as substrate for Kpc-2 and Cefotaxime was used for SHV-5, while changes in absorbance upon hydrolysis of the β-lactam ring were monitored at 300 nm and 260 nm respectively in UV-transparent 96-well microtiter assay plates. Maximum rates of hydrolysis were compared to those in control wells (without inhibitors), and percentages of enzyme inhibition were calculated for each concentration of inhibitor. The concentration of inhibitor needed to reduce the initial rate of hydrolysis of substrate by 50% (IC50) was calculated as the residual activity of β-lactamase at 486 nm using GraFit version 7 kinetics software package (Erithacus Software, Surrey, UK).
Using the methodology described above, examples of the current invention were evaluated for their ability to inhibit β-lactamase enzymes from all four Ambler classifications (A through D). […] NT=Not tested.

K.P. A-1797 KPC-2 VIM-4 [2] = assay: Broth microdilution MIC, K. pneumoniae A-1797; assay type: cell-based; conditions: Klebsiella pneumoniae; partner antibiotic alone, K. pneumoniae expressing KPC-2 and VIM-4
[3] = fixed meropenem 4 μg/mL, CAMHB, 16-20 hours 37° C., read-out: MIC of exemplary compounds in presence of fixed β-lactams, Fixed Mero, K.P. 156319 KPC-3

SMILES	MIC (E. cl 144200 p99 AmpC)	MIC (E. coli ESBL4 CTX-M-15)	MIC (K.P. 156319 KPC-3; [3])	MIC (S. aureus MSSA-7 PC-1)	MIC (P. aerug. Ps296 VIM-2)	MIC (K.P. A-1797 KPC-2 VIM-4 [1])	IC50 (p99 AmpC)	MIC (K.P. 156319 KPC-3; read-out: MIC alone)	MIC (K.P. A-1797 KPC-2 VIM-4 [2])
N=C(N)NC1CN(C2CCC(CC(=O)N[C@H]3Cc4cccc(C(=O)O)c4OB3O)CC2)C1 (stereo partly drawn) [Example 41, (3R)-3-(2-(4-(3-guanidinoazetidin-1-yl)cyclohexyl)acetamido)-2-hydroxy-3,4-dihydro-2H-benzo[e][1,2]oxaborinine-8-carboxylic acid]	< 4 mg/L	< 4 mg/L	< 4 mg/L	< 4 mg/L	8 to 32 mg/L	< 4 mg/L	< 0.1 µM	–	–
O=C(CC1CCC(O)CC1)N[C@H]1Cc2cccc(C(=O)O)c2OB1O (stereo partly drawn) [Example 47, (3R)-2-hydroxy-3-(2-(4-hydroxycyclohexyl)acetamido)-3,4-dihydro-2H-benzo[e][1,2]oxaborinine-8-carboxylic acid]	< 4 mg/L	< 4 mg/L	< 4 mg/L	< 4 mg/L	8 to 32 mg/L	> 32 mg/L	< 0.1 µM	–	–
C[C@@H](O)[C@H]1C(=O)N2C(C(=O)O)=C(S[C@@H]3CN[C@H](C(=O)N(C)C)C3)[C@H](C)[C@H]12 [Meropenem, reference compound]	–	–	–	–	–	–	–	> 128 mg/L	64 mg/L (≈ 167 µM)
